This is an account of results in US9624214B2, “Amino-substituted imidazo[1,2-a]pyridinecarboxamides and their use” (BAYER PHARMA AKTIENGESELLSCHAFT, priority 2012, dated 2017).

Each structure is given as a SMILES string. Where a name gives a salt, the structure may show the parent alone.

The assay concerns the target T1, recombinant guanylate cyclase reporter cell line (Rattus norvegicus, UniProt P19686+P20595).
T1 construct: expressed in transfected cells
T1 sequence (P20595 1-619): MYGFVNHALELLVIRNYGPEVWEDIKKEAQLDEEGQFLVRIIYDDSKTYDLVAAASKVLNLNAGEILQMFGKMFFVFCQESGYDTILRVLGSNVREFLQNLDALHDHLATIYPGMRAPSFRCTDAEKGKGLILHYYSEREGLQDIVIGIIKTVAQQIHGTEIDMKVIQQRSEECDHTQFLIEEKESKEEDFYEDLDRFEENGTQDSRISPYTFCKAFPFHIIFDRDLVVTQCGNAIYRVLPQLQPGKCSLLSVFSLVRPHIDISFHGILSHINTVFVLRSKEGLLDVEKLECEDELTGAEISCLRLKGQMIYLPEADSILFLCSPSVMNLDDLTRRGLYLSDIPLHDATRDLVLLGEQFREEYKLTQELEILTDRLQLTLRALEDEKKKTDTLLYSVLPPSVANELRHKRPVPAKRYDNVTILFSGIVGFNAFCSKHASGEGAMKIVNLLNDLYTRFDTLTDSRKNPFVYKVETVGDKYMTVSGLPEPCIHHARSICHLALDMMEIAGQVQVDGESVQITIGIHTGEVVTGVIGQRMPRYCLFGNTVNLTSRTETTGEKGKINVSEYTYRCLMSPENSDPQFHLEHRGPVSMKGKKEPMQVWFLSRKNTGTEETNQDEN
T1 sequence (P19686 1-690): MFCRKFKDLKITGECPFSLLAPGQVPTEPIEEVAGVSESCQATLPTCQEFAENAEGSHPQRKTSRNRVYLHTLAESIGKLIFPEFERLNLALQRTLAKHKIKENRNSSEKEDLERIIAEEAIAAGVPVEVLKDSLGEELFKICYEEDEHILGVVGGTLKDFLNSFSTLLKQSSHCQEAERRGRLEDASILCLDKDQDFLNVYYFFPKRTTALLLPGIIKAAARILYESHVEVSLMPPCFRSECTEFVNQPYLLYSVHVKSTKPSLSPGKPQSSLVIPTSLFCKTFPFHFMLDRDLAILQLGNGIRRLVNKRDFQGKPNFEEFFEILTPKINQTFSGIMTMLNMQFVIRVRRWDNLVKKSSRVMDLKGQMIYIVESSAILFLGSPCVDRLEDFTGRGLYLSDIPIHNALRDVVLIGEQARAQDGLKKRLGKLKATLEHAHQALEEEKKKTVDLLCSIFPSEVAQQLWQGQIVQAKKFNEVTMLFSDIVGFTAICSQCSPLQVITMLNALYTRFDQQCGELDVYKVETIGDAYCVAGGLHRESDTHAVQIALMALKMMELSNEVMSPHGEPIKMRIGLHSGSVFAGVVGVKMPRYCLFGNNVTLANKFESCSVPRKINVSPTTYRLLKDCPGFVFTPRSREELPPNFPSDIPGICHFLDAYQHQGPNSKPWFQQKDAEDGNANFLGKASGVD
Put plainly: B-2. Action on recombinant guanylate cyclase reporter cell line. The format is cell-based. The following applies: MEC = minimal effective concentration; in some cases mean values from individual determinations. An outline of the steps:
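Read-out: MEC (minimal effective concentration) in cells. Reporter line carries recombinant sGC. Some values are averages of single runs.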
As to `Cc1nc2c(OCc3c(F)cccc3F)cccn2c1C(=O)NC(CN)CC(C(F)(F)F)C(F)(F)F` (single isomer, unassigned; enantiomer a) [Example 7, ent-N-[1-Amino-5,5,5-trifluoro-4-(trifluoromethyl)pentan-2-yl]-8-[(2,6-difluorobenzyl)oxy]-2-methylimidazo[1,2-a]pyridine-3-carboxamide (Enantiomer A)], the MEC was 1.00 µM.
Consider `Cc1nc2c(OCc3c(F)cccc3F)cc(Cl)cn2c1C(=O)NCC1CCCCN1` (single isomer, unassigned; ent-6) [Example 191, ent-6-Chloro-8-[(2,6-difluorobenzyl)oxy]-2-methyl-N-(piperidin-2-ylmethyl)imidazo[1,2-a]-pyridine-3-carboxamide], for which the MEC turned out to be 1.00 µM.
In the case of `C=Cc1cccc(C(CN)NC(=O)c2c(C)nc3c(OCc4c(F)cccc4F)cc(C)cn23)c1` (racemic) [Example 385, rac-N-[2-amino-1-(3-ethenylphenyl)ethyl]-8-[(2,6-difluorobenzyl)oxy]-2,6-dimethylimidazo[1,2-a]pyridine-3-carboxamide] it was 1.00 µM.
For `Cc1nc2c(OCc3c(F)cccc3F)cc(Cl)cn2c1C(=O)NCCN1C[C@@H](C)O[C@@H](C)C1` [Example 158, 6-chloro-8-[(2,6-difluorobenzyl)oxy]-N-{2-[(2R,6S)-2,6-dimethylmorpholin-4-yl]ethyl}-2-methylimidazo[1,2-a]pyridine-3-carboxamide], the MEC amounted to 0.30 µM.
In the case of `CCC1CC(NC(=O)c2c(C)nc3c(OCc4c(F)cccc4F)cc(C)cn23)c2nc(C(F)(F)F)ccc2N1` (single isomer, unassigned; ent-8) [Example 325, ent-8-[(2,6-Difluorobenzyl)oxy]-N-[2-ethyl-6-(trifluoromethyl)-1,2,3,4-tetrahydro-1,5-naphthyridin-4-yl]-2,6-dimethylimidazo[1,2-a]pyridine-3-carboxamide] it was 0.30 µM; in that of `COCC(CN)NC(=O)c1c(C)nc2c(OCc3c(F)cccc3F)cccn12` (single isomer, unassigned) [Example 123, ent-N-(1-Amino-3-methoxypropan-2-yl)-8-[(2,6-difluorobenzyl)oxy]-2-methylimidazo[1,2-a]-pyridine-3-carboxamide Ditrifluoroacetate], 3.00 µM; in that of `Cc1nc2c(OCc3c(F)cccc3F)cc(Cl)cn2c1C(=O)NCC(C)N` (racemic) [Example 23, rac-N-(2-aminopropyl)-6-chloro-8-[(2,6-difluorobenzyl)oxy]-2-methylimidazo[1,2-a]-pyridine-3-carboxamide], 0.30 µM.
The same measure for `Cc1nc2c(OCc3c(F)cccc3F)cc(Cl)cn2c1C(=O)NC1CNc2ccccc21` (racemic) [Example 49, rac-6-Chloro-8-[(2,6-difluorobenzyl)oxy]-N-(2,3-dihydro-1H-indol-3-yl)-2-methylimidazo[1,2-a]-pyridine-3-carboxamide]: 0.30 µM; for `CCCC(C)(N)CNC(=O)c1c(C)nc2c(OCc3cccc(F)c3F)cc(C)cn12` (racemic) [Example 303, rac-N-(2-amino-2-methylpentyl)-8-[(2,3-difluorobenzyl)oxy]-2,6-dimethylimidazo[1,2-a]pyridine-3-carboxamide]: 0.20 µM.
The same measure for `Cc1cc(OCc2c(F)cccc2F)c2nc(C)c(C(=O)NCC(C)N3CCOCC3)n2c1` (single isomer, unassigned; ent-8) [Example 186, ent-8-[(2,6-Difluorobenzyl)oxy]-2,6-dimethyl-N-[2-(morpholin-4-yl)propyl]imidazo[1,2-a]-pyridine-3-carboxamide]: 0.30 µM; for `Cc1nc2c(OCc3c(F)cccc3F)cccn2c1C(=O)NCCNCC(F)F` [Example 169, 8-[(2,6-difluorobenzyl)oxy]-N-{2-[(2,2-difluoroethyl)amino]ethyl}-2-methylimidazo[1,2-a]pyridine-3-carboxamide]: 1.65 µM; for `Cc1nc2c(OCc3c(F)cccc3F)cccn2c1C(=O)NCC(N)C(C)C` (single isomer, unassigned) [Example 229, ent-N-(2-Amino-3-methylbutyl)-8-[(2,6-difluorobenzyl)oxy]-2-methylimidazo[1,2-a]pyridine-3-carboxamide]: 1.00 µM.
Consider `CCOC(=O)c1cccc(C(CN)NC(=O)c2c(C)nc3c(OCc4c(F)cccc4F)cc(C)cn23)n1` (racemic) [Example 397, rac-ethyl 6-{2-amino-1-[({8-[(2,6-difluorobenzyl)oxy]-2,6-dimethylimidazo[1,2-a]pyridin-3-yl}carbonyl)amino]ethyl}pyridine-2-carboxylate], for which the MEC stood at 1.00 µM.
The same measure for `Cc1cc(OCc2c(F)cccc2F)c2nc(C)c(C(=O)NCC(N)C(C)C)n2c1` (single isomer, unassigned) [Example 224, ent-N-(2-Amino-3-methylbutyl)-8-[(2,6-difluorobenzyl)oxy]-2,6-dimethylimidazo[1,2-a]pyridine-3-carboxamide]: 0.30 µM; for `Cc1nc2c(OCc3c(F)cccc3F)cccn2c1C(=O)NCC(N)C(F)(F)C(F)F` (racemic) [Example 230, rac-N-(2-Amino-3,3,4,4-tetrafluorobutyl)-8-[(2,6-difluorobenzyl)oxy]-2-methylimidazo[1,2-a]-pyridine-3-carboxamide]: 1.00 µM; for `C#Cc1cc(OCc2c(F)cccc2F)c2nc(C)c(C(=O)NCC(C)(N)CCC)n2c1` (stereo not drawn) [Example 356, ent-N-(2-amino-2-methylpentyl)-8-[(2,6-difluorobenzyl)oxy]-6-ethynyl-2-methylimidazo[1,2-a]pyridine-3-carboxamide]: 0.10 µM.
The same measure for `Cc1cc(OCc2c(F)cccc2F)c2nc(C)c(C(=O)NC(CN)c3cccc(OC(F)(F)F)c3)n2c1` (racemic) [Example 380, rac-N-{2-amino-1-[3-(trifluoromethoxy)phenyl]ethyl}-8-[(2,6-difluorobenzyl)oxy]-2,6-dimethylimidazo[1,2-a]pyridine-3-carboxamide]: 1.00 µM; for `CCC(C)(N)CNC(=O)c1c(C)nc2c(OCc3c(F)ccc(F)c3F)cc(C)cn12` (single isomer, unassigned; enantiomer a) [Example 300, ent-N-(2-amino-2-methylbutyl)-2,6-dimethyl-8-[(2,3,6-trifluorobenzyl)oxy]imidazo[1,2-a]pyridine-3-carboxamide (Enantiomer A) Hydrochloride]: 0.10 µM; for `CC[C@@H](N)CNC(=O)c1c(C)nc2c(OCc3c(F)cccc3F)cc(Cl)cn12` [Example 35, ent-N-[(2R)-2-aminobutyl]-6-chloro-8-[(2,6-difluorobenzyl)oxy]-2-methylimidazo[1,2-a]-pyridine-3-carboxamide]: 1.00 µM.
In the case of `CCCC(C)(N)CNC(=O)c1c(C)nc2c(OCc3c(F)cccc3F)cc(C)cn12` (single isomer, unassigned) [Example 234, ent-N-(2-Amino-2-methylpentyl)-8-[(2,6-difluorobenzyl)oxy]-2,6-dimethylimidazo[1,2-a]pyridine-3-carboxamide] it was 0.03 µM.
